Tests used:
[1] = tested on: peroxidized lipid in rat brain homogenate; experiment: Lipoperoxidation inhibitory activity in brain homogenate (TBA method); assay type: biochemical, Wistar male rats; conditions: 30 minutes at 37° C., final conc. 0.3-100 μM, read-out: Anti-lipoperoxidation Activity IC50
Protocol: Brain homogenate was prepared using Wistar male rats in accordance with the following procedure. […] A polyethylene tube was inserted into the aorta through the left ventricle, and fixed. Brain perfusion was conducted using ice-cooled 50 mM phosphate buffered saline (PBS), pH 7.4, through the tube, and whole brain was extracted. After removal of the cerebellum, the cerebrum was weighed while wet and homogenated by a Teflon homogenizer under ice-cooling, after addition of nine-fold by weight of PBS. The resultant homogenate was centrifuged at 4° C. (2200 r.p.m., 10 minutes), and an aliquot of the supernatant (0.3 ml) was placed in a light-resistant test tube with ground stopper and used for the following test.
To the brain homogenate obtained above were added PBS (0.6 ml) and an ethanol solution (10 μl) containing a predetermined amount of a test compound. Thus, each of the ethanol solutions was prepared so that the final concentration of the compound was 0.3-100 μM. The mixture was allowed to warm for 30 minutes at 37° C. (external bath temperature). […] (2600 r.p.m., 10 minutes). The resultant supernatant was used in the following quantitative analysis.
The aqueous mixture was heated in a boiling-water bath for 60 minutes and cooled rapidly. Distilled water (1.0 ml) and a mixture of pyridine and butanol (1:15) (5.0 ml) were added to the cooled mixture, and the latter was shaken for 30 seconds and centrifuged (3000 r.p.m., 10 minutes). The supernatant was used as a test sample for quantitative analysis of peroxidized lipid as mentioned below.

[2] = tested on: mice; experiment: Passive avoidance response test (memory-improving activity, cycloheximide-treated mice); assay type: in vivo; conditions: Mus musculus; oral, 15 mice per group, cycloheximide 120 mg/kg s.c., latent time; read-out: Memory-Improving Activity, Minimum Effective Dose
Protocol: Passive avoidance response test was conducted in mice (15 animals per group) using light-dark differential apparatus of step-down type. The apparatus consisted of a dark room made of black and rigid vinylidene chloride resin [30 cm (depth)×30 cm (width)×31 cm (height)] and a light room, as an adjacent room, made of transparent rigid vinylidene chloride resin. The floor of the light room was set 2 cm higher than the grid surface of the dark room (step down type), and there was a guillotine door between the rooms. The animals were placed in the apparatus and acclimatized before test, and latent time for moving from the light room to the dark room was determined.
The acclimatized animals subcutaneously received 120 mg/kg of cycloheximide (Sigma) dissolved in physiological saline. After 30 minutes of the administration, the animals were placed in the light room. Immediatly after the movement of the animals to the dark room, electric current was applied on the grid (0.5 mA, 3 seconds), which gave the animals "aquired behavior". After 24 hours of the establishment of the aquired behavior, a test compound suspended in 1% tragacanth was administered orally to the animals, which were then returned to the light room. Control animals received only 1% tragacanth. The latent time until an individual animal started to move to the dark room was determined.

Structure (SMILES)	IC50 [1]	minimal effective dose [2]
COc1ccc(-c2c(C)[nH]c(=O)n2C)cc1 [Compound A, reference compound]	147 µM	–
CCCCn1c(-c2ccccc2)c(C)[nH]c1=O [Compound B, reference compound]	> 100 µM	–
CCCCCCc1ccc(-c2c(C)[nH]c(=O)n2C)cc1 [Compound No. 1, 1,4-Dimethyl-5-(4'-n-hexylphenyl)-4-imidazolin-2-one]	9 µM	0.3 mg/kg
CCCc1ccc(-c2c(C)[nH]c(=O)n2C)cc1 [Compound No. 7]	21.5 µM	–
Cc1[nH]c(=O)n(C)c1-c1ccc(C(C)(C)C)cc1 [Compound No. 9]	8.4 µM	–
CCCCCCCCCCc1ccc(-c2c(C)[nH]c(=O)n2C)cc1 [Compound No. 12]	7.9 µM	0.3 mg/kg
CCCCCCCCCCCCc1ccc(-c2c(C)[nH]c(=O)n2C)cc1 [Compound No. 13]	13 µM	3 mg/kg
Cc1[nH]c(=O)n(C)c1-c1ccc(OCCC(C)C)cc1 [Compound No. 20]	6.6 µM	–
CCCCCCOc1ccc(-c2c(C)[nH]c(=O)n2C)cc1 [Compound No. 21]	7.3 µM	–
Cc1[nH]c(=O)n(C(C)C)c1-c1ccc(C2CCCCC2)cc1 [Compound No. 77, 5-(4'-Cyclohexylphenyl)-1-isopropyl-4-methyl-4-imidazolin-2-one]	8.3 µM	0.1 mg/kg
Cc1[nH]c(=O)n(C2CCCCC2)c1-c1ccc(-c2ccccc2)cc1 [Compound No. 93, 1-Cyclohexyl-5-(4-biphenyl)-4-methyl-4-imidazolin-2-one]	10.9 µM	0.1 mg/kg
CCCCCCCCCCOc1ccc(-c2c(C)[nH]c(=O)n2C2CCCCC2)cc1 [Compound No. 122, 1-cyclohexyl-5-(4'-decyloxyphenyl)-4-methyl-4-imidazolin-2-one]	10.5 µM	0.1 mg/kg
Cc1[nH]c(=O)n(C2CCCCC2)c1-c1ccc(Oc2ccccc2)cc1 [Compound No. 123, 1-Cyclohexyl-4-methyl-5-(4'-phenoxyphenyl)-4-imidazolin-2-one]	7.9 µM	0.1 mg/kg
Cc1[nH]c(=O)n(C2CCCCC2)c1-c1ccc(OCc2ccccc2)cc1 [Compound No. 124, 5-(4'-Benzyloxyphenyl)-1-cyclohexyl-4-methyl-4-imidazolin-2-one]	8.3 µM	0.1 mg/kg
COC1=C(OC)C(=O)C(CCCCCCCCCCO)=C(C)C1=O [Idebenone, reference compound]	17.2 µM	–
CCCCc1ccc(-c2c(CC)[nH]c(=O)n2C)cc1 [compound 3]	13.9 µM	–
Cc1[nH]c(=O)n(C)c1-c1ccc(CC(C)C)cc1 [compound 5]	7.8 µM	30 mg/kg
CCCCCc1ccc(-c2c(C)[nH]c(=O)n2C)cc1 [compound 6]	5.9 µM	–
CCCCCCCc1ccc(-c2c(C)[nH]c(=O)n2C)cc1 [compound 10]	8.4 µM	30 mg/kg

Structure (SMILES)	IC50 [1]	minimal effective dose [2]
CCCCCCCCc1ccc(-c2c(C)[nH]c(=O)n2C)cc1 [compound 11]	19.4 µM	30 mg/kg
CCCCCCCCCCCCCCc1ccc(-c2c(C)[nH]c(=O)n2C)cc1 [compound 14]	43.8 µM	30 mg/kg
Cc1[nH]c(=O)n(C)c1-c1ccc(OC(C)C)cc1 [compound 17]	20.4 µM	–
CCCCOc1ccc(-c2c(C)[nH]c(=O)n2C)cc1 [compound 18]	5.1 µM	0.3 mg/kg
CCCCCOc1ccc(-c2c(C)[nH]c(=O)n2C)cc1 [compound 19]	4.5 µM	–
CCCCCCCOc1ccc(-c2c(C)[nH]c(=O)n2C)cc1 [compound 22]	5.7 µM	–
CCCCCCCCOc1ccc(-c2c(C)[nH]c(=O)n2C)cc1 [compound 23]	4 µM	30 mg/kg
CCCCCCCCCOc1ccc(-c2c(C)[nH]c(=O)n2C)cc1 [compound 24]	4.8 µM	–
CCCCCCCCCCOc1ccc(-c2c(C)[nH]c(=O)n2C)cc1 [compound 25]	6.9 µM	0.1 mg/kg
CCCCCCCCCCCCOc1ccc(-c2c(C)[nH]c(=O)n2C)cc1 [compound 26]	9.7 µM	0.1 mg/kg
CCCCCCCCCCCCCCCCCCOc1ccc(-c2c(C)[nH]c(=O)n2C)cc1 [compound 27]	–	0.1 mg/kg
Cc1[nH]c(=O)n(C)c1-c1ccc(Oc2ccccc2)cc1 [compound 28]	8.1 µM	–
Cc1[nH]c(=O)n(C)c1-c1ccc(OCc2ccccc2)cc1 [compound 29]	6.7 µM	–
Cc1[nH]c(=O)n(C)c1-c1ccc(OCCCc2ccccc2)cc1 [compound 30]	5.9 µM	30 mg/kg
CSc1ccc(-c2c(C)[nH]c(=O)n2C)cc1 [compound 31]	39.4 µM	–
CCCCSc1ccc(-c2c(C)[nH]c(=O)n2C)cc1 [compound 32]	11.3 µM	3 mg/kg
CCCc1ccc(-c2c(C)[nH]c(=O)n2CC)cc1 [compound 54]	22.6 µM	–
CCCCc1ccc(-c2c(C)[nH]c(=O)n2CC)cc1 [compound 55]	24.5 µM	–
CCCCc1ccc(-c2c(CC)[nH]c(=O)n2CC)cc1 [compound 56]	13.9 µM	–

Structure (SMILES)	IC50 [1]	minimal effective dose [2]
CCCCOc1ccc(-c2c(C)[nH]c(=O)n2CC)cc1 [compound 58]	14.5 µM	0.3 mg/kg
CCn1c(-c2ccc(OC(C)C)cc2)c(C)[nH]c1=O [compound 60]	39.1 µM	–
CCCCSc1ccc(-c2c(C)[nH]c(=O)n2CC)cc1 [compound 61]	12.9 µM	–
CCCCc1ccc(-c2c(C)[nH]c(=O)n2C(C)C)cc1 [compound 78]	10.7 µM	0.3 mg/kg
CCCCOc1ccccc1-c1c(C)[nH]c(=O)n1C(C)C [compound 80]	25.5 µM	–
Cc1[nH]c(=O)n(C2CCCCC2)c1-c1ccc(OCCC(C)C)cc1 [compound 94, 1-Cyclohexyl-5-(4'-isoamyloxyphenyl)-4-methyl-4-imidazolin-2-one]	7.2 µM	–
CCCCCCCCc1ccc(-c2c(C)[nH]c(=O)n2C2CCCCC2)cc1 [compound 101]	10.3 µM	–
CCCCCCCCCCc1ccc(-c2c(C)[nH]c(=O)n2C2CCCCC2)cc1 [compound 102]	27 µM	–
CCCc1ccc(-c2c(C)[nH]c(=O)n2C2CCCCC2)cc1 [compound 106]	13.9 µM	30 mg/kg
Cc1[nH]c(=O)n(C2CCCCC2)c1-c1cccc(OC(C)C)c1 [compound 107]	10.4 µM	–
Cc1[nH]c(=O)n(C2CCCCC2)c1-c1ccccc1OC(C)C [compound 108]	21.5 µM	–
Cc1[nH]c(=O)n(C2CCCCC2)c1-c1ccc(OC(C)C)cc1 [compound 109]	13 µM	0.1 mg/kg
CCCCOc1cccc(-c2c(C)[nH]c(=O)n2C2CCCCC2)c1 [compound 110]	9 µM	–
CCCCOc1ccc(-c2c(C)[nH]c(=O)n2C2CCCCC2)cc1 [compound 111]	13.9 µM	0.1 mg/kg
CCCCCOc1ccc(-c2c(C)[nH]c(=O)n2C2CCCCC2)cc1 [compound 112]	9.1 µM	–
Cc1[nH]c(=O)n(Cc2ccccc2)c1-c1ccc(C(C)(C)C)cc1 [compound 138]	8.6 µM	–
CCCCCCc1ccc(-c2c(C)[nH]c(=O)n2Cc2ccccc2)cc1 [compound 139]	8.2 µM	–
Cc1[nH]c(=O)n(Cc2ccccc2)c1-c1ccc(C2CCCCC2)cc1 [compound 140]	35.3 µM	–

Source: patent publication US5116858A, “4-imidazoline derivatives” (Mitsubishi Kasei Corporation, priority 1989, dated 1992)
